Data on 28 compounds can be found in US11802111B2, “Cyclobutyl amide monoacylglycerol lipase modulators” (Janssen Pharmaceutica NV, priority 2020, dated 2023).

pIC50: −log10 of the molar value.

What is called pIC50 is the negative decadic logarithm of the IC50, by convention in mol/L.

human MGL from HeLa cells, sequence (Q99685 whole entry): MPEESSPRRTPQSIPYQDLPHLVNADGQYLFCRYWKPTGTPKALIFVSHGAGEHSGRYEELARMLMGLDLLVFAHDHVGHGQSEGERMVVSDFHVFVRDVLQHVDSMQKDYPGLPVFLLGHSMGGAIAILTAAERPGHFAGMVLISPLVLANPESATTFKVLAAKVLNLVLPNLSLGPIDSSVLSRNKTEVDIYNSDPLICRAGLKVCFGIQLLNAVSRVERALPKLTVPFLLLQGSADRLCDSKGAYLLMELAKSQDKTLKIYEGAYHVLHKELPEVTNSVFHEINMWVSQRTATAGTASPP

The target in this assay is human MGL from HeLa cells (Homo sapiens (Human), UniProt Q99685). The assay can be described thus: MGL in vitro activity assay ([glycerol-1,3-3H]-oleoyl glycerol hydrolysis, activated carbon filtration). Format: biochemical. The following applies: 300 nM [Glycerol-1,3-3H]-oleoyl glycerol, one hour. The method, then:
The assay used to measure the in vitro activity of MGL is adapted from the assay used for another serine hydrolase (FAAH) described in Wilson et al., 2003 (A high-throughput-compatible assay for determining the activity of fatty acid amide hydrolase. Wilson S J, Lovenberg T W, Barbier A J. Anal Biochem. 2003 Jul. 15; 318(2):270-5). The assay consists of combining endogenously expressed MGL from HeLa cells with test compounds, adding [glycerol-1,3-^3H]-oleyl glycerol, incubating for one hour, and then measuring the amount of cleaved [1,3-^3H]-glycerol that passes through an activated carbon filter. The amount of cleaved, tritiated glycerol passing through the carbon filter is proportional to the activity of the MGL enzyme in a particular well/test condition.
Standard conditions for this assay combine 300 nM [Glycerol-1,3-^3H]-oleoyl glycerol with human MGL from HeLa cells and test compounds for one hour, after which the reaction is filtered through activated carbon and tritium is measured in the flow through. The test compound concentration in screening mode is 10 μM, while the highest compound concentration in IC50 assays is determined empirically. MGL is the predominant hydrolase in HeLa cells/cell homogenates.
`Cc1ccc(C2CCC3(C2)CN(C(=O)[C@H]2C[C@@](C)(O)C2)C3)cc1Cl` (mixture of isomers) [Example 71, (rac)-(6-(3-Chloro-4-methylphenyl)-2-azaspiro[3.4]octan-2-yl)((1s,3s)-3-hydroxy-3-methylcyclobutyl)methanone] showed a pIC50 of 7.82.

For `Cc1cc(C2CCC3(C2)CN(C(=O)[C@H]2C[C@@](C)(O)C2)C3)ccc1OC(F)F` (mixture of isomers) [Example 72, (rac)-(6-(4-(Difluoromethoxy)-3-methylphenyl)-2-azaspiro[3.4]octan-2-yl)((1s,3s)-3-hydroxy-3-methylcyclobutyl)methanone], the pIC50 was 8.34.

As for `Cc1cc(C2CC2)ccc1C1CCC2(C1)CN(C(=O)[C@H]1C[C@@](C)(O)C1)C2` (mixture of isomers) [Example 75, (rac)-(6-(4-Cyclopropyl-2-methylphenyl)-2-azaspiro[3.4]octan-2-yl)((1s,3s)-3-hydroxy-3-methylcyclobutyl)methanone], the pIC50 was 8.62.

The compound `COc1ccc(C2CCC3(C2)CN(C(=O)[C@H]2C[C@@](C)(O)C2)C3)cc1C` (mixture of isomers) [Example 76, (rac)-((1s,3s)-3-Hydroxy-3-methylcyclobutyl)(6-(4-methoxy-3-methylphenyl)-2-azaspiro[3.4]octan-2-yl)methanone] showed a pIC50 of 7.29.

Turning to `Cc1cc(C2CCC3(C2)CN(C(=O)[C@H]2C[C@@](C)(O)C2)C3)cc(C(F)(F)F)c1` (mixture of isomers) [Example 77, (rac)-((1s,3s)-3-Hydroxy-3-methylcyclobutyl)(6-(3-methyl-5-(trifluoromethyl)phenyl)-2-azaspiro[3.4]octan-2-yl)methanone], the pIC50 was 7.92.

The compound `Cc1ccc(C(F)(F)F)cc1C1CCC2(C1)CN(C(=O)[C@H]1C[C@@](C)(O)C1)C2` (mixture of isomers) [Example 78, (rac)-((1s,3s)-3-Hydroxy-3-methylcyclobutyl)(6-(2-methyl-5-(trifluoromethyl)phenyl)-2-azaspiro[3.4]octan-2-yl)methanone] showed a pIC50 of 7.96.

Compound `COc1cccc(C2CCC3(C2)CN(C(=O)[C@H]2C[C@@](C)(O)C2)C3)c1F` (mixture of isomers) [Example 79, (rac)-(6-(2-Fluoro-3-methoxyphenyl)-2-azaspiro[3.4]octan-2-yl)((1s,3s)-3-hydroxy-3-methylcyclobutyl)methanone] gave a pIC50 of 6.62.

Compound `COc1cc(C)cc(C2CCC3(C2)CN(C(=O)[C@H]2C[C@@](C)(O)C2)C3)c1` (mixture of isomers) [Example 80, (rac)-((1s,3s)-3-Hydroxy-3-methylcyclobutyl)(6-(3-methoxy-5-methylphenyl)-2-azaspiro[3.4]octan-2-yl)methanone] showed a negative-log IC50 (pIC50) of 6.98.

For `C[C@]1(O)C[C@@H](C(=O)N2CC3(CCC(c4cc(C5CC5)ccc4F)C3)C2)C1` (mixture of isomers) [Example 81, (rac)-(6-(5-Cyclopropyl-2-fluorophenyl)-2-azaspiro[3.4]octan-2-yl)((1s,3s)-3-hydroxy-3-methylcyclobutyl)methanone], the pIC50 is 7.70.

The compound `Cc1ccc(C2CCC3(C2)CN(C(=O)[C@H]2C[C@@](C)(O)C2)C3)cc1OC(F)F` (mixture of isomers) [Example 82, (rac)-(6-(3-(Difluoromethoxy)-4-methylphenyl)-2-azaspiro[3.4]octan-2-yl)((1s,3s)-3-hydroxy-3-methylcyclobutyl)methanone] had a pIC50 of 7.51.

Consider `Cc1cc(OC(F)F)ccc1C1CCC2(C1)CN(C(=O)[C@H]1C[C@@](C)(O)C1)C2` (mixture of isomers) [Example 83, (rac)-(6-(4-(Difluoromethoxy)-2-methylphenyl)-2-azaspiro[3.4]octan-2-yl)((1s,3s)-3-hydroxy-3-methylcyclobutyl)methanone], for which the negative logarithm of the IC50 (pIC50) is 7.60. This pIC50 and that of the compound before are within 0.2 log units of each other.

In the case of `Cc1cc(OC(F)F)cc(C2CCC3(C2)CN(C(=O)[C@H]2C[C@@](C)(O)C2)C3)c1` (mixture of isomers) [Example 84, (rac)-(6-(3-(Difluoromethoxy)-5-methylphenyl)-2-azaspiro[3.4]octan-2-yl)((1s,3s)-3-hydroxy-3-methylcyclobutyl)methanone], the pIC50 is 7.33. This pIC50 lies 0.27 log units lower than the previous one.

`Cc1ccc(OC(F)F)cc1C1CCC2(C1)CN(C(=O)[C@H]1C[C@@](C)(O)C1)C2` (mixture of isomers) [Example 85, (rac)-(6-(5-(Difluoromethoxy)-2-methylphenyl)-2-azaspiro[3.4]octan-2-yl)((1s,3s)-3-hydroxy-3-methylcyclobutyl)methanone] had a pIC50 of 7.38.

As to `COc1cc(Cl)cc(C2CCC3(C2)CN(C(=O)[C@H]2C[C@@](C)(O)C2)C3)c1` (mixture of isomers) [Example 86, (rac)-(6-(3-Chloro-5-methoxyphenyl)-2-azaspiro[3.4]octan-2-yl)((1s,3s)-3-hydroxy-3-methylcyclobutyl)methanone], the pIC50 was 7.38.

Consider `COc1cc(C2CCC3(C2)CN(C(=O)[C@H]2C[C@@](C)(O)C2)C3)ccc1Cl` (mixture of isomers) [Example 87, (rac)-(6-(4-Chloro-3-methoxyphenyl)-2-azaspiro[3.4]octan-2-yl)((1s,3s)-3-hydroxy-3-methylcyclobutyl)methanone], for which the pIC50 was 6.98.

`CC(C)c1cccc(C2CCC3(C2)CN(C(=O)[C@H]2C[C@](O)(C(F)(F)F)C2)C3)c1` (mixture of isomers) [Example 88, (rac)-((1s,3s)-3-Hydroxy-3-(trifluoromethyl)cyclobutyl)(6-(3-isopropylphenyl)-2-azaspiro[3.4]octan-2-yl)methanone]: the pIC50 is 7.23.

The compound `CC(F)(F)c1cccc(C2CCC3(C2)CN(C(=O)[C@H]2C[C@@](C)(O)C2)C3)c1` (mixture of isomers) [Example 90, (rac)-(6-(3-(1,1-Difluoroethyl)phenyl)-2-azaspiro[3.4]octan-2-yl)((1s,3s)-3-hydroxy-3-methylcyclobutyl)methanone] gave a pIC50 of 7.19.

As for `CCc1cccc(C2CCC3(C2)CN(C(=O)[C@H]2C[C@@](C)(O)C2)C3)c1` (mixture of isomers) [Example 91, (rac)-(6-(3-Ethylphenyl)-2-azaspiro[3.4]octan-2-yl)((1s,3s)-3-hydroxy-3-methylcyclobutyl)methanone], the pIC50 is 7.24.

For `Cc1ccc(C2CCC3(C2)CN(C(=O)[C@H]2C[C@@](C)(O)C2)C3)cc1C(F)F` (mixture of isomers) [Example 92, (rac)-(6-(3-(Difluoromethyl)-4-methylphenyl)-2-azaspiro[3.4]octan-2-yl)((1s,3s)-3-hydroxy-3-methylcyclobutyl)methanone], the pIC50 was 7.57.

In turn, `Cc1cc(OC(F)(F)F)cc(C2CCC3(C2)CN(C(=O)[C@H]2C[C@@](C)(O)C2)C3)c1` (mixture of isomers) [Example 93, (rac)-((1s,3s)-3-Hydroxy-3-methylcyclobutyl)(6-(3-methyl-5-(trifluoromethoxy)phenyl)-2-azaspiro[3.4]octan-2-yl)methanone] gave a pIC50 of 7.70.

Regarding `Cc1cc(C(F)F)cc(C2CCC3(C2)CN(C(=O)[C@H]2C[C@@](C)(O)C2)C3)c1` (mixture of isomers) [Example 94, (rac)-(6-(3-(Difluoromethyl)-5-methylphenyl)-2-azaspiro[3.4]octan-2-yl)((1s,3s)-3-hydroxy-3-methylcyclobutyl)methanone], the pIC50 is 7.22. This pIC50 lies 0.48 log units lower than the previous one.

`COc1c(C)cccc1C1CCC2(C1)CN(C(=O)[C@H]1C[C@@](C)(O)C1)C2` (mixture of isomers) [Example 95, (rac)-((1s,3s)-3-Hydroxy-3-methylcyclobutyl)(6-(2-methoxy-3-methylphenyl)-2-azaspiro[3.4]octan-2-yl)methanone] gave a negative-log IC50 (pIC50) of 6.54.

Turning to `CCc1ccc(C2CCC3(C2)CN(C(=O)[C@H]2C[C@@](C)(O)C2)C3)cc1` (mixture of isomers) [Example 96, (rac)-(6-(4-Ethylphenyl)-2-azaspiro[3.4]octan-2-yl)((1s,3s)-3-hydroxy-3-methylcyclobutyl)methanone], the pIC50 is 7.74.

In turn, `C[C@]1(O)C[C@@H](C(=O)N2CC3(CCC(c4ccn5nccc5c4)C3)C2)C1` (mixture of isomers) [Example 97, (rac)-((1s,3s)-3-Hydroxy-3-methylcyclobutyl)(6-(pyrazolo[1,5-a]pyridin-5-yl)-2-azaspiro[3.4]octan-2-yl)methanone] showed a pIC50 of 6.18.

In turn, `Cc1cccc(C)c1C1CCC2(C1)CN(C(=O)[C@H]1C[C@@](C)(O)C1)C2` (mixture of isomers) [Example 98, (rac)-(6-(2,6-Dimethylphenyl)-2-azaspiro[3.4]octan-2-yl)((1s,3s)-3-hydroxy-3-methylcyclobutyl)methanone] had a pIC50 of 6.53.

The compound `Cn1cc(C2CCC3(C2)CN(C(=O)[C@H]2C[C@@](C)(O)C2)C3)cn1` (mixture of isomers) [Example 99, (rac)-((1s,3s)-3-Hydroxy-3-methylcyclobutyl)(6-(1-methyl-1H-pyrazol-4-yl)-2-azaspiro[3.4]octan-2-yl)methanone] showed a pIC50 of 5.23.

The compound `Cn1cc(C2CCC3(C2)CN(C(=O)[C@H]2C[C@@](C)(O)C2)C3)c(C(F)(F)F)n1` (mixture of isomers) [Example 100, (rac)-((1s,3s)-3-Hydroxy-3-methylcyclobutyl)(6-(1-methyl-3-(trifluoromethyl)-1H-pyrazol-4-yl)-2-azaspiro[3.4]octan-2-yl)methanone] showed a pIC50 of 5.05. The pIC50 values of the last two compounds are within 0.2 log units of each other.

Compound `Cn1nc(C(F)(F)F)cc1C1CCC2(C1)CN(C(=O)[C@H]1C[C@@](C)(O)C1)C2` (mixture of isomers) [Example 101, (rac)-((1s,3s)-3-Hydroxy-3-methylcyclobutyl)(6-(1-methyl-3-(trifluoromethyl)-1H-pyrazol-5-yl)-2-azaspiro[3.4]octan-2-yl)methanone] gave a pIC50 of 6.12.
